Experimental findings from US10077243B2, “Compounds for treating disorders mediated by metabotropic glutamate receptor 5, and methods of use thereof” (Sunovion Pharmaceuticals Inc., priority 2009, dated 2018) are described below.

T1 sequence (P41594 21-1212): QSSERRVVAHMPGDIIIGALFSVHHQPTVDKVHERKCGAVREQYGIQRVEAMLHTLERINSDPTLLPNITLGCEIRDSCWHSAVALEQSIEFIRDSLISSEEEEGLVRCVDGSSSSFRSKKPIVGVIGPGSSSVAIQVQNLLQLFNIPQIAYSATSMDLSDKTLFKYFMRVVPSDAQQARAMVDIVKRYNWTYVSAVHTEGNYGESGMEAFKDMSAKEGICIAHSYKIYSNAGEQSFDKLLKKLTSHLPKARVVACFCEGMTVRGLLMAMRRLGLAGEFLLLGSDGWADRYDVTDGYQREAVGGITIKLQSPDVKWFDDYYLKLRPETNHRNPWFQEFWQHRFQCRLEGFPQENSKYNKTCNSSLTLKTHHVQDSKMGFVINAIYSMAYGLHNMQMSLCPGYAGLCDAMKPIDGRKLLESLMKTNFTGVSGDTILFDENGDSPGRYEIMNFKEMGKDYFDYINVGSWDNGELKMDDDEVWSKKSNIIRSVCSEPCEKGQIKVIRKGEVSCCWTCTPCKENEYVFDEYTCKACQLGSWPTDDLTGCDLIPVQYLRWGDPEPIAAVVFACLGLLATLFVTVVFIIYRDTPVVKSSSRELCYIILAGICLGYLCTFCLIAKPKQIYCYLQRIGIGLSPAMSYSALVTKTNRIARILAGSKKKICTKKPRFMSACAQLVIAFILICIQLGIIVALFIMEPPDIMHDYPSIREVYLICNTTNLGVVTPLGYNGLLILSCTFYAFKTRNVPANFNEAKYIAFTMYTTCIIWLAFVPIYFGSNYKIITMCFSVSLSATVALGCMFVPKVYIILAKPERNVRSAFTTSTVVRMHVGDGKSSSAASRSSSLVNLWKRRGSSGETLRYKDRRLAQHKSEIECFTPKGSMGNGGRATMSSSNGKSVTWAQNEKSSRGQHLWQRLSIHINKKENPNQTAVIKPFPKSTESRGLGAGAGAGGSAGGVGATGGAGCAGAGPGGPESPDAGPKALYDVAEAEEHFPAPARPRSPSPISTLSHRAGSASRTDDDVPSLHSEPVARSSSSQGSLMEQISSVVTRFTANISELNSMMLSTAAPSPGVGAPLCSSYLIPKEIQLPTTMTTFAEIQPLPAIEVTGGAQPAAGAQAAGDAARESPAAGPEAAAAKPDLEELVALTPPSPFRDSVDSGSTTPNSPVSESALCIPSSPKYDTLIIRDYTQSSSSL

This test has as its target T1, human mGluR5 (Homo sapiens, UniProt P41594).
T1 construct: expressed in transfected cells; host or cells: HEK293 cells stably expressing rat GLAST (EAAT1), stably transfected with pcDNAzeo3.1 carrying synthetic human mGluR5 DNA; zeocin-selected single clones
Kind of test: In vitro cell-based FLIPR calcium assay for positive modulation of the activation of mGluR5 by glutamate (PAM EC50). The settings on record: HEK293/GLAST cells expressing recombinant human mGluR5; FLIPR calcium signal; glutamate added at its EC20; read-out: mGluR5 PAM EC50. The source says: The DNA sequences encoding the structural regions for rat mGluR5 [Abe T, Sugihara H, Nawa H, Shigemoto R, Mizuno N, Nakanishi S (1992) “Molecular characterization of a novel metabotropic glutamate receptor mGluR5 coupled to inositol phosphate/Ca^2+ signal transduction” Journal of Biological Chemistry vol. 267, no. 19, pp. 13361-8] and human mGluR5 [Daggett L P, Sacaan A I, Akong M, Rao S P, Hess S D, Liaw C, Urrutia A, Jachec C, Ellis S B, Dreessen J, Knöpfel T, Landwehrmeyer G B, Testa C M, Young A B, Varney M, Johnson E C, Veliçelebi (1995) “Molecular and functional characterization of recombinant human metabotropic glutamate receptor subtype 5” Neuropharmacology vol. 34, no. […] 53, no. 3, pp. 355-369] was obtained from Dr. Michael Robinson of the Children's Hospital of Philadelphia under a Material Transfer Agreement. The pcDNAzeo3.1 vector DNA, carrying either rat mGluR5 or human mGluR5, was used to transfect a sample of the HEK293/GLAST cells, and single clones that express mGluR5 were isolated from the transfected cells using zeocin selection. Expression of mGluR5 was assessed by measurement of the transient fluorescence signal elicited from HEK293/GLAST/mGluR5 cells by glutamate following the loading of the cells with a calcium-sensitive dye using a FLIPR Tetra (Fluorometric Imaging Plate Reader) (Molecular Devices, Sunnyvale, Calif.) [O'Brien J A, Lemaire W, Chen T B, Chang R S, Jacobson M A, Ha S N, Lindsley C W, Schaffhauser H J, Sur C, Pettibone D J, Conn P J, Williams D L Jr. […] 64, no. 3, pp. 731-740; Assay Guidance Manual Version 5.0, 2008, Eli Lilly and Company and NIH Chemical Genomics Center; available online HEK293/GLAST/mGluR5 cells were grown in Dulbecco's Modified Eagle Medium (DMEM) supplemented with 10% dialyzed fetal bovine serum, 20 millimolar (mM) N-2-hydroxyethylpiperazine-N′-2-ethanesulfonic acid (HEPES), penicillin, streptomycin, 1% GlutaMax™ (Invitrogen) and 50 μg/ml zeocin. Cells were grown in the media to 70-80% confluency at 37° C. under 5% CO2, 95% humidity in poly-D-lysine coated coated flasks. Cells for assays were plated into 96-well sterile standard microtiter plates (pre-coated with poly-D-lysine) at a density of 50,000 cells per well in 0.2 milliliters of media. Plated cells were allowed to settle and adhere for 30 minutes at ambient conditions, and then were incubated overnight at 37° C. under 5% CO2, 95% humidity. Several such 96-well plates were typically prepared. On the day of the assays, the components of the FLIPR calcium 4 assay kit (Molecular Devices) were dissolved according to the instructions of the dye kit's manufacturer in assay buffer (Hank's balanced salt solution (HBSS) (Gibco) supplemented with 20 mM HEPES). After removal of the growth media from the first plate, cells were loaded with calcium dye by addition of calcium dye solution (50 microliters per well) and incubation at 25° C. for 45 to 60 minutes. The first plate was placed into the FLIPR Tetra, and a dilution series of glutamate solutions in assay buffer were added to wells on the plate, followed by acquisition of fluorescence data for several minutes. The fluorescence data (maximal signal as a 4-parameter sigmoidal function of log [glutamate]) were processed by non-linear regression methods using the software package GraphPad Prism 5.01 (GraphPad Software Inc.), to yield a glutamate concentration-response curve (CRC). […] These values were, respectively, the concentrations of glutamate that elicit 20%, 50%, and 80% of the maximal FLIPR signal (observed at saturating [glutamate]). The method for measuring the concentration response of a potentiator, or positive allosteric modulator (PAM), is described here as an example. For that purpose, subsequent assays were typically performed using assay buffer containing a glutamate concentration equal to that day's EC20. […] Addition to certain wells of the same buffer containing 0.3% DMSO, but without any test compound, provided a negative control.
Usually EC50 stands for the concentration needed to bring the measured effect to its halfway point. With `O=c1c2ccc(C#Cc3ccc(F)cc3)cc2ncn1CC1CCCO1` (single isomer, unassigned) [1.15/1.16 faster moving enantiomer (fraction 1), 7-((4-fluorophenyl)ethynyl)-3-((tetrahydrofuran-2-yl)methyl)quinazolin-4(3H)-one], the EC50 was in the range of 10 to 30 nM. For the compound `O=c1c2ccc(C#Cc3ccc(F)cc3)cc2ncn1CC1CCCO1` (single isomer, unassigned) [1.15/1.16 slower moving enantiomer (fraction 2), 7-((4-fluorophenyl)ethynyl)-3-((tetrahydrofuran-2-yl)methyl)quinazolin-4(3H)-one], the EC50 was 100 to 300 nM. As to `CC1Cc2nc3cc(C#Cc4ccccn4)ccc3c(=O)n2C1` (single isomer, unassigned) [3.12/3.13 faster moving enantiomer (fraction 1), 2-methyl-6-(pyridin-2-ylethynyl)-2,3-dihydropyrrolo[2,1-b]quinazolin-9(1H)-one], the EC50 fell in the range of 30 to 100 nM. On to `CC1Cc2nc3cc(C#Cc4ccccn4)ccc3c(=O)n2C1` (single isomer, unassigned) [3.12/3.13 slower moving enantiomer (fraction 2), 2-methyl-6-(pyridin-2-ylethynyl)-2,3-dihydropyrrolo[2,1-b]quinazolin-9(1H)-one], for which the EC50 is 10 to 30 nM. Regarding `COCC1CCc2nc3cc(C#Cc4ccccn4)ccc3c(=O)n2C1` (single isomer, unassigned) [4.34a/4.34b faster moving enantiomer (fraction 1), 8-(methoxymethyl)-3-(pyridin-2-ylethynyl)-8,9-dihydro-6H-pyrido[2,1-b]quinazolin-11(7H)-one], the EC50 was in the range of 30 to 100 nM. For the compound `COCC1CCc2nc3cc(C#Cc4ccccn4)ccc3c(=O)n2C1` (single isomer, unassigned) [4.34a/4.34b slower moving enantiomer (fraction 2), 8-(methoxymethyl)-3-(pyridin-2-ylethynyl)-8,9-dihydro-6H-pyrido[2,1-b]quinazolin-11(7H)-one], the EC50 lay within 30 to 100 nM.

On to `CC1CCc2nc3cc(C#Cc4ccccn4)ccc3c(=O)n2CC1` (single isomer, unassigned) [6.10/6.11 faster moving enantiomer (fraction 1), 8-methyl-3-(pyridin-2-ylethynyl)-7,8,9,10-tetrahydroazepino[2,1-b]quinazolin-12(6H)-one], for which the EC50 is < 10 nM.

As to `CC1CCc2nc3cc(C#Cc4ccccn4)cnc3c(=O)n2CC1` (single isomer, unassigned) [11.9a/11.9b faster moving enantiomer (fraction 1), 8-methyl-3-(pyridin-2-ylethynyl)-7,8,9,10-tetrahydropyrido[3′,2′: 4,5]pyrimido[1,2-a]azepin-12(6H)-one], the EC50 fell in the range of 30 to 100 nM. With `CC1CCc2nc3cc(C#Cc4ccccn4)cnc3c(=O)n2CC1` (single isomer, unassigned) [11.9a/11.9b slower moving enantiomer (fraction 2), 8-methyl-3-(pyridin-2-ylethynyl)-7,8,9,10-tetrahydropyrido[3′,2′:4,5]pyrimido[1,2-a]azepin-12(6H)-one], the EC50 lay within 10 to 30 nM.

For the compound `CC1(F)CCc2nc3cc(C#Cc4ccccn4)ccc3c(=O)n2CC1` (single isomer, unassigned) [Example 6.48a/6.48b faster moving enantiomer (fraction 1), 8-fluoro-8-methyl-3-(pyridin-2-ylethynyl)-7,8,9,10-tetrahydroazepino[2,1-b]quinazolin-12(6H)-one], the 50% effective concentration (EC50) is < 10 nM. The result for `CC1(F)CCc2nc3cc(C#Cc4ccccn4)ccc3c(=O)n2CC1` (single isomer, unassigned) [Example 6.48a/6.48b slower moving enantiomer (fraction 2), 8-fluoro-8-methyl-3-(pyridin-2-ylethynyl)-7,8,9,10-tetrahydroazepino[2,1-b]quinazolin-12(6H)-one] reads < 10 nM.

Turning to `COC1(C)CCc2nc3cc(C#Cc4ccccn4)ccc3c(=O)n2CC1` (single isomer, unassigned) [Example 6.50a/6.50b slower moving enantiomer (fraction 2), 8-methoxy-8-methyl-3-(pyridin-2-ylethynyl)-7,8,9,10-tetrahydroazepino[2,1-b]quinazolin-12(6H)-one], the EC50 is 10 to 30 nM. Regarding `O=c1c2ccc(C#Cc3ccccn3)cc2nc2n1CC1CCCN1CC2` (single isomer, unassigned) [Example 9.4a/9.4b faster moving enantiomer (fraction 1), 9-(pyridin-2-ylethynyl)-2,3,5,6,14,14a-hexahydropyrrolo[2′,1′:3,4][1,4]diazepino[7,1-b]quinazolin-12(1H)-one], the EC50 fell in the range of 30 to 100 nM. The figure for `O=c1c2ccc(C#Cc3ccccn3)cc2nc2n1CC1CCCN1CC2` (single isomer, unassigned) [Example 9.4a/9.4b slower moving enantiomer (fraction 2), 9-(pyridin-2-ylethynyl)-2,3,5,6,14,14a-hexahydropyrrolo[2′,1′:3,4][1,4]diazepino[7,1-b]quinazolin-12(1H)-one] is 100 to 300 nM; for `O=c1[nH]cnc2cc(C#Cc3cccc(F)c3)ccc12` [Example 1.2, 7-((3-fluorophenyl)ethynyl)quinazolin-4(3H)-one] it is 300 to 1000 nM. `Cn1cnc2cc(C#Cc3ccccc3)ccc2c1=O` [Example 1.3, 3-methyl-7-(phenylethynyl)quinazolin-4(3H)-one]: the EC50 is 100 to 300 nM. Regarding `Cn1cnc2cc(C#Cc3nccs3)ccc2c1=O` [Example 1.5, 3-methyl-7-(thiazol-2-ylethynyl)quinazolin-4(3H)-one], the EC50 lay in the range of 300 to 1000 nM. Regarding `CCCn1cnc2cc(C#Cc3ccc(F)cc3)ccc2c1=O` [Example 1.6, 7-((4-fluorophenyl)ethynyl)-3-propylquinazolin-4(3H)-one], the EC50 fell in the range of 100 to 300 nM. The figure for `CCCn1cnc2cc(C#Cc3cccc(F)c3)ccc2c1=O` [Example 1.7, 7-((3-fluorophenyl)ethynyl)-3-propylquinazolin-4(3H)-one] is 10 to 30 nM; for `O=c1c2ccc(C#Cc3cccc(F)c3)cc2ncn1CC1CC1` [Example 1.8, 3-(cyclopropylmethyl)-7-((3-fluorophenyl)ethynyl) quinazolin-4(3H)-one] it is 30 to 100 nM; for `O=c1c2ccc(C#Cc3ccc(F)cc3)cc2ncn1CC1CC1` [Example 1.9, 3-(cyclopropylmethyl)-7-((4-fluorophenyl)ethynyl)quinazolin-4(3H)-one] it is 100 to 300 nM. `O=c1c2ccc(C#Cc3ccc(F)cc3)cc2ncn1C1CCCC1` [Example 1.10, 3-cyclopentyl-7-((4-fluorophenyl)ethynyl)quinazolin-4(3H)-one]: the EC50 was 30 to 100 nM. `O=c1c2ccc(C#Cc3cccc(F)c3)cc2ncn1C1CCCC1` [Example 1.11, 3-cyclopentyl-7-((3-fluorophenyl)ethynyl)quinazolin-4(3H)-one]: the EC50 is 10 to 30 nM. The figure for `COCCn1cnc2cc(C#Cc3ccc(F)cc3)ccc2c1=O` [Example 1.12, 7-((4-fluorophenyl)ethynyl)-3-(2-methoxyethyl)quinazolin-4(3H)-one] is 30 to 100 nM; for `O=c1c2ccc(C#Cc3ccc(F)cc3)cc2ncn1CC1CCCO1` (stereo not shown) [Example 1.13, 7-((4-fluorophenyl)ethynyl)-3-((tetrahydrofuran-2-yl)methyl)quinazolin-4(3H)-one] it is 30 to 100 nM.
